Experimental findings from patent publication US9266908B2, “Inhibitors of arginase and their therapeutic applications” (MARS, INCORPORATED, priority 2011, dated 2016) are described below.

The target of one experiment is T1, arginase II (ARG II) (Homo sapiens, UniProt P78540).
T1 sequence (P78540 23-354): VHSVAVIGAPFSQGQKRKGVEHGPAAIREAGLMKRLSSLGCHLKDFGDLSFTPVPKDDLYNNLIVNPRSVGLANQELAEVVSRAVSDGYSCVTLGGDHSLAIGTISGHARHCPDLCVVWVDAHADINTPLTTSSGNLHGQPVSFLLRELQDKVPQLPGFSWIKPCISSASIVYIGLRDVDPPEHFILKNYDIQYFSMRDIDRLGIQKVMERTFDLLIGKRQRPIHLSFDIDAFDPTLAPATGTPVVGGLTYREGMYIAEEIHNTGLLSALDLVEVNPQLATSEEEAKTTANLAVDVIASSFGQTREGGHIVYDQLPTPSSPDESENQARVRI
Put plainly: Inhibition of arginase II, spectrophotometric urea assay at 530 nm.

The target of another experiment is T2, human-Arginase-1 (Homo sapiens, UniProt P05089).
T2 construct: expressed in transfected cells; host or cells: CHOK cells
T2 sequence (P05089 1-322): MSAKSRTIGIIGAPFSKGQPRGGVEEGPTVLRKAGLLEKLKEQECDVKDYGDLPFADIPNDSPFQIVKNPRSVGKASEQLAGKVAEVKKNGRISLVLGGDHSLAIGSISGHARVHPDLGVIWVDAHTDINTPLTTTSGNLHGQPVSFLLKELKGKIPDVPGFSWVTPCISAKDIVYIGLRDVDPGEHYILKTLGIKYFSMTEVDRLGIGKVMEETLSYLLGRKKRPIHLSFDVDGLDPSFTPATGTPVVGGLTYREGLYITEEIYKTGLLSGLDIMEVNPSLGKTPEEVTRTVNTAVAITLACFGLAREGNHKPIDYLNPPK
Put plainly: Urea production in CHOK cells stably transfected with human-Arginase-1. The format is cell-based. To be noted: IC50 class, 5 mM arginine, 24 hours, read-out: CHOK Cell. Here is the method:
Table 3 also provides CHOK cell based IC50 values for illustrative arginase inhibitors. IC50 values were determined by measuring the production of urea in CHOK cells stably transfected with human-Arginase-1.
Briefly, CHOK cells were stably transfected with human-arginase-1. To determiner the IC50 values for compounds in accordance with the present invention, parental CHOK cells and arginase-1 stably transfected cells were plated in a 96 well plate. Cells were plated using 200 μl of complete growth medium and incubated overnight at 37° C.
Media from each of the wells containing cells was first removed and growth media supplemented with arginine at a concentration of 5 mM was added to each well. The test compounds were dissolved in PBS buffer to the desired concentration and added to appropriate wells. The plate was then incubated at 37° C. for 24 hours. After 24 hours the plates were spun down at 3000 RPM for 5 min and 50 μl of the media were transferred to a new plate.
An aqueous solution of o-phthaldehyde, Brij, sulfuric acid, primaquine diphosphate and boric acid was added to each well and the plate was incubated for 10-15 minutes. The urea concentration in each well was determined by measuring the optical density at 520-530 nanometers using a standard curve. The IC50 values were calculated by measuring urea production at various concentrations of the inventive arginase inhibitors after subtracting the value related to the concentration of urea in control wells.

In another experiment the target is T3, human arginase I (ARG I) (Homo sapiens, UniProt P05089).
T3 sequence (P05089 1-322): T2 sequence (P05089 1-322)
Put plainly: Inhibition of arginase I, spectrophotometric urea assay at 530 nm.

As for `NC(CCCCB(O)O)(C(=O)O)[C@H]1C[C@@H](NC2CCC(c3ccccc3)CC2)C1` (mixture of isomers) [Example 47, (S)-2-amino-6-borono-2-((1s,3R)-3-(4-phenylcyclohexylamino)cyclobutyl)hexanoic acid], the IC50 at arginase II (ARG II) lay in the range of 0.1 to 25 nM; at human-Arginase-1, 26000 to 100000 nM; on human arginase I (ARG I), 26 to 100 nM.
The matching figures for `NC(CCCCB(O)O)(C(=O)O)[C@H]1C[C@@H](NCc2cccc(-c3ccccc3)c2F)C1` (mixture of isomers) [Example 48, (S)-2-amino-6-borono-2-((1s,3R)-3-((2-fluorobiphenyl-3-yl)methylamino)cyclobutyl)hexanoic acid]: 0.1 to 25 nM, 26000 to 100000 nM and 26 to 100 nM.
On the same counts, the results for `NC(CCCCB(O)O)(C(=O)O)[C@H]1C[C@@H](NCc2ccc(-c3ccc(Cl)cc3)c(F)c2F)C1` (mixture of isomers) [Example 50, (S)-2-amino-6-borono-2-((1s,3R)-3-((4′-chloro-2,3-difluorobiphenyl-4-yl)methylamino)cyclobutyl)hexanoic acid] are 26 to 100 nM, 1000 to 25000 nM and 0.1 to 25 nM.
For `NC(CCCCB(O)O)(C(=O)O)[C@H]1C[C@@H](NCc2ccc(-c3ccc(Cl)cc3)c(F)c2)C1` (mixture of isomers) [Example 51, (S)-2-amino-6-borono-2-((1s,3R)-3-((4′-chloro-2-fluorobiphenyl-4-yl)methylamino)cyclobutyl)hexanoic acid], the values for the IC50 against arginase II (ARG II), on human-Arginase-1 and on human arginase I (ARG I) were 0.1 to 25 nM, 26000 to 100000 nM and 26 to 100 nM, respectively.
On the same counts, the results for `Cc1ccc(F)c(-c2ccc(CN[C@H]3C[C@@H](C(N)(CCCCB(O)O)C(=O)O)C3)cc2F)c1` (mixture of isomers) [Example 52, (S)-2-amino-6-borono-2-((1s,3R)-3-((2,2′-difluoro-5′-methylbiphenyl-4-yl)methylamino)cyclobutyl)hexanoic acid] are 0.1 to 25 nM, 1000 to 25000 nM and 0.1 to 25 nM.
On the same counts, the results for `NC(CCCCB(O)O)(C(=O)O)[C@H]1C[C@@H](NCc2ccc(-c3ccc(F)cc3)c(F)c2)C1` (mixture of isomers) [Example 53, (S)-2-amino-6-borono-2-((1s,3R)-3-((2,4′-difluorobiphenyl-4-yl)methylamino)cyclobutyl)hexanoic acid] are 26 to 100 nM, 26000 to 100000 nM and 0.1 to 25 nM.
The matching figures for `NC(CCCCB(O)O)(C(=O)O)[C@H]1C[C@@H](NCc2ccc(-c3ccccc3F)c(F)c2)C1` (mixture of isomers) [Example 54, (S)-2-amino-6-borono-2-((1s,3R)-3-((2,2′-difluorobiphenyl-4-yl)methylamino)cyclobutyl)hexanoic acid]: 26 to 100 nM, 26000 to 100000 nM and 26 to 100 nM.
As to `NC(CCCCB(O)O)(C(=O)O)[C@H]1C[C@@H](NCc2ccc(-c3ccc(F)cc3F)c(F)c2)C1` (mixture of isomers) [Example 55, (S)-2-amino-6-borono-2-((1s,3R)-3-((2,2′,4′-trifluorobiphenyl-4-yl)methylamino)cyclobutyl)hexanoic acid], the IC50 against arginase II (ARG II) lay in the range of 26 to 100 nM; on human-Arginase-1, 26000 to 100000 nM; against human arginase I (ARG I) it was 26 to 100 nM.
`NC(CCCCB(O)O)(C(=O)O)[C@H]1C[C@@H](NCc2ccc(Cc3ccccc3)cc2)C1` (mixture of isomers) [Example 57, (S)-2-amino-2-((1s,3R)-3-(4-benzylbenzylamino)cyclobutyl)-6-boronohexanoic acid]: the IC50 was in the range of 26 to 100 nM at arginase II (ARG II), 26000 to 100000 nM on human-Arginase-1 and 26 to 100 nM against human arginase I (ARG I).
In the case of `NC(CCCCB(O)O)(C(=O)O)[C@H]1C[C@@H](NCc2c(F)cc(-c3ccc(Cl)cc3)cc2F)C1` (mixture of isomers) [Example 58, (S)-2-amino-6-borono-2-((1s,3R)-3-((4′-chloro-3,5-difluorobiphenyl-4-yl)methylamino)cyclobutyl)hexanoic acid], the IC50 is 26 to 100 nM against arginase II (ARG II), 1000 to 25000 nM on human-Arginase-1 and 26 to 100 nM at human arginase I (ARG I).
Consider `NC(CCCCB(O)O)(C(=O)O)[C@H]1C[C@@H](NCC2CCN(c3ccc(C(F)(F)F)cc3)CC2)C1` (mixture of isomers) [Example 60, (S)-2-amino-6-borono-2-((1s,3R)-3-((1-(4-(trifluoromethyl)phenyl)piperidin-4-yl)methylamino)cyclobutyl)hexanoic acid], for which the IC50 against arginase II (ARG II) fell in the range of 26 to 100 nM; at human-Arginase-1 it was 26000 to 100000 nM; against human arginase I (ARG I), 0.1 to 25 nM.
The matching figures for `NC(CCCCB(O)O)(C(=O)O)[C@H]1CC[C@H](NCc2ccc(-c3ccccc3)cc2)C1` (stereo in doubt) [Example 43]: 26 to 100 nM, 26000 to 100000 nM and 26 to 100 nM.
The matching figures for `NC(CCCCB(O)O)(C(=O)O)[C@H]1C[C@@H](NC2Cc3ccccc3C2)C1` (stereo partly drawn) [Example 5, (S)-2-amino-6-borono-2-((1s,3R)-3-(2,3-dihydro-1H-inden-2-ylamino)cyclobutyl)hexanoic acid]: 26 to 100 nM, 1000 to 25000 nM and 0.1 to 25 nM.
As to `CNC(CCCCB(O)O)(CCN1CCC(c2ccc(Cl)cc2)CC1)C(=O)O` (stereo not drawn) [Example 37, 6-borono-2-(2-(4-(4-chlorophenyl)piperidin-1-yl)ethyl)-2-(methylamino)hexanoic acid], the IC50 against arginase II (ARG II) and against human arginase I (ARG I) was 101 to 500 nM throughout.
Regarding `NC(CCCCB(O)O)(CCCN1CCCC1)C(=O)O` (stereo not drawn) [Example 38, 2-amino-6-borono-2-(3-(pyrrolidin-1-yl)propyl)hexanoic acid], the IC50 on arginase II (ARG II) and on human arginase I (ARG I) was 101 to 500 nM in each case.
For `NC(CCCCB(O)O)(C(=O)O)[C@@H]1CC[C@H](NCc2ccc(-c3ccccc3)cc2)C1` (stereo partly drawn) [Example 42], the IC50 against arginase II (ARG II) and against human arginase I (ARG I) was 26 to 100 nM throughout.
Consider `NC(CCCCB(O)O)(C(=O)O)[C@H]1C[C@@H](NCCc2ccc(-c3ccccc3)cc2)C1` (stereo partly drawn) [Example 65, (S)-2-amino-2-((1s,3R)-3-(2-(biphenyl-4-yl)ethylamino)cyclobutyl)-6-boronohexanoic acid], for which the results for the IC50 on arginase II (ARG II) and against human arginase I (ARG I) were 0.1 to 25 nM and 26 to 100 nM, respectively.
On the same counts, the results for `N[C@](CCCCB(O)O)(CCNC1Cc2ccccc2C1)C(=O)O` [Example 66, (R)-2-amino-6-borono-2-(2-(2,3-dihydro-1H-inden-2-ylamino)ethyl)hexanoic acid] are 101 to 500 nM and 101 to 500 nM.
Turning to `CCCN(C)CC[C@](N)(CCCCB(O)O)C(=O)O` [Example 69, (R)-2-amino-6-borono-2-(2-(methyl(propyl)amino)ethyl)hexanoic acid], the IC50 against arginase II (ARG II) and against human arginase I (ARG I) was 101 to 500 nM each time.
In the case of `CC(C)NCC[C@](N)(CCCCB(O)O)C(=O)O` [Example 70, (R)-2-amino-6-borono-2-(2-(isopropylamino)ethyl)hexanoic acid], the IC50 on arginase II (ARG II) was 101 to 500 nM; on human arginase I (ARG I), 26 to 100 nM.
On the same counts, the results for `CC(C)CNCC[C@](N)(CCCCB(O)O)C(=O)O` [Example 71, (R)-2-amino-6-borono-2-(2-(isobutylamino)ethyl)hexanoic acid] are 101 to 500 nM and 101 to 500 nM.
The matching figures for `N[C@](CCCCB(O)O)(CCN1Cc2ccccc2C1)C(=O)O` [Example 72, (R)-2-amino-6-borono-2-(2-(isoindolin-2-yl)ethyl)hexanoic acid]: 501 to 1500 nM and 101 to 500 nM.
The matching figures for `NC1(c2ccc(Cl)cc2)CC(C(N)(CCCCB(O)O)C(=O)O)C1` (stereo not drawn) [Example 73, 2-amino-2-(3-amino-3-(4-chlorophenyl)cyclobutyl)-6-boronohexanoic acid]: 101 to 500 nM and 501 to 1500 nM.
For the compound `NC1(Cc2ccc(Cl)cc2)CC(C(N)(CCCCB(O)O)C(=O)O)C1` (stereo not drawn) [Example 74, 2-amino-2-(3-amino-3-(4-chlorobenzyl)cyclobutyl)-6-boronohexanoic acid], the IC50 against arginase II (ARG II) and against human arginase I (ARG I) was 101 to 500 nM throughout.
Take `CNC(CCCCB(O)O)(C(=O)O)[C@H]1C[C@@H](N)C1` (stereo partly drawn) [Example 75, (S)-2-((1s,3R)-3-aminocyclobutyl)-6-borono-2-(methylamino)hexanoic acid]: the IC50 against arginase II (ARG II) and at human arginase I (ARG I) was 101 to 500 nM throughout.
